Data taken from patent US7868005B2, “Pyrazinyl substituted piperazine-piperidines with CXCR3 antagonist activity” (Schering Corporation, priority 2005, dated 2011).

biological target: T1, human CXCR3 (N-delta 4) (Homo sapiens, UniProt P49682); test: Human CXCR3 (N-delta 4) Scintillation Proximity Assay (SPA), [125I] IP-10 binding to Ba/F3-hCXCR3 membranes; conditions: IC50 rating, Table 1; read-out: IC50
T1 construct: CD8 leader (N); Flag; expressed in transfected cells; membranes prepared
T1 sequence (P49682 5-368 limits assumed): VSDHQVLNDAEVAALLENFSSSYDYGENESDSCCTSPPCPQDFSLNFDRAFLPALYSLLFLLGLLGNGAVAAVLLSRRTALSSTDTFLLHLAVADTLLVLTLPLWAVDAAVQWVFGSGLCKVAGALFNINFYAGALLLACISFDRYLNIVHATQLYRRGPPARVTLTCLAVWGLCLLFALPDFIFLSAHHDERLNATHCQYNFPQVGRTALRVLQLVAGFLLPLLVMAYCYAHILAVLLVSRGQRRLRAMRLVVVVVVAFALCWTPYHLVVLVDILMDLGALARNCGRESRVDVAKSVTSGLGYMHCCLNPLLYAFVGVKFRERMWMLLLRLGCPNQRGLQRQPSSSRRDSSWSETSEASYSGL

IC50 | Structure (SMILES)
> 0.1 µM | CC[C@H]1CN(c2nc(N)c(C(=O)N3CCN(C(=O)OC(C)(C)C)CC3)nc2Cl)CCN1C1CCN(Cc2ccc(Cl)cc2)CC1 [compound 312]
> 0.1 µM | CC[C@H]1CN(c2nc(N)c(C(=O)N3CCN(S(C)(=O)=O)CC3)nc2Cl)CCN1C1CCN(Cc2ccc(Cl)cc2)CC1 [compound 313]
< 0.025 µM | CC[C@H]1CN(c2nc(N)c(C(=O)NC3CC3)nc2Cl)CCN1C1CCN(C(=O)c2ccc(Cl)cc2O)CC1 [compound 314]
< 0.025 µM | CC[C@H]1CN(c2nc(N)c(C(=O)NCCO)nc2Cl)CCN1C1CCN(C(=O)c2ccc(Cl)cc2OCCNC(=O)OC(C)(C)C)CC1 [compound 315]
< 0.025 µM | CC[C@H]1CN(c2nc(N)c(C(=O)NCCO)nc2Cl)CCN1C1CCN(C(=O)c2ccc(Cl)cc2OCCNS(=O)(=O)C(F)(F)F)CC1 [compound 316]
< 0.025 µM | CC[C@H]1CN(c2nc(N)c(C(=O)NCCO)nc2Cl)CCN1C1CCN(C(=O)c2ccc(Cl)cc2CC#N)CC1 [compound 317]
0.025 to 0.1 µM | CC[C@H]1CN(c2nc(N)c(C(=O)NCCO)nc2Cl)CCN1C1CCN(C(=O)c2ccc(F)c(F)c2)CC1 [compound 318]
0.025 to 0.1 µM | CC[C@H]1CN(c2nc(N)c(C(=O)NC[C@H](C)O)nc2Cl)CCN1C1CCN(C(=O)c2ccc(Cl)cc2)CC1 [compound 319]
0.025 to 0.1 µM | CC[C@H]1CN(c2nc(N)c(C(=O)NC(CO)CO)nc2Cl)CCN1C1CCN(C(=O)c2ccc(Cl)cc2)CC1 [compound 320]
0.025 to 0.1 µM | CC[C@H]1CN(c2nc(N)c(C(=O)NCCO)nc2Cl)CCN1C1CCN(C(=O)c2ccc(C)cc2O)CC1 [compound 321]
0.025 to 0.1 µM | CC[C@H]1CN(c2nc(N)c(C(=O)NCCO)nc2Cl)CCN1C1CCN(C(=O)c2ccc(Cl)cc2O)CC1 [compound 322]
0.025 to 0.1 µM | CC[C@H]1CN(c2nc(N)c(C(=O)N[C@@H](C)CO)nc2Cl)CCN1C1CCN(C(=O)c2ccc(Cl)cc2)CC1 [compound 323]
> 0.1 µM | CCOC(=O)COc1cc(Cl)ccc1C(=O)N1CCC(N2CCN(c3nc(N)c(C(=O)NCCO)nc3Cl)C[C@@H]2CC)CC1 [compound 324]
> 0.1 µM | CC[C@H]1CN(c2nc(N)c(C(N)=O)nc2Cl)CCN1C1CCN(C(=O)c2ccc(Cl)cc2CN2Cc3ccccc3C2)CC1 [compound 325]
> 0.1 µM | CC[C@H]1CN(c2nc(N)c(C(=O)NCCO)nc2Cl)CCN1C1CCN(C(=O)c2ccc(Cl)cc2OCCN)CC1 [compound 326]
> 0.1 µM | CC[C@H]1CN(c2nc(N)c(C(=O)NCCOCCO)nc2Cl)CCN1C1CCN(C(=O)c2ccc(Cl)cc2)CC1 [compound 327]
> 0.1 µM | CC[C@H]1CN(c2nc(N)c(C(=O)N[C@@H](CO)C(C)O)nc2Cl)CCN1C1CCN(C(=O)c2ccc(Cl)cc2)CC1 (some centres unmarked) [compound 328]
> 0.1 µM | CC[C@H]1CN(c2nc(N)c(C(=O)N[C@H](CO)C(C)C)nc2Cl)CCN1C1CCN(C(=O)c2ccc(Cl)cc2)CC1 [compound 329]
< 0.025 µM | CC[C@H]1CN(c2nc(N)c(C(=O)NC)nc2Cl)CCN1C1CCN(C(=O)c2ccc(Cl)cc2N)CC1 [compound 330]
< 0.025 µM | CC[C@H]1CN(c2nc(N)c(C(=O)NC)nc2Cl)CCN1C1CCN(C(=O)c2ccc(Br)cc2)CC1 [compound 331]
< 0.025 µM | CCNC(=O)c1nc(Cl)c(N2CCN(C3CCN(C(=O)c4ccc(Cl)cc4)CC3)[C@@H](CC)C2)nc1N [compound 332]

IC50 | Structure (SMILES)
< 0.025 µM | CC[C@H]1CN(c2nc(N)c(C(=O)NC)nc2Cl)CCN1C1CCN(C(=O)c2ccc(Br)c(F)c2)CC1 [compound 333]
< 0.025 µM | CC[C@H]1CN(c2nc(N)c(C(=O)NCCO)nc2Cl)CCN1C1CCN(C(=O)c2ccc(Cl)cc2)CC1 [compound 334]
< 0.025 µM | CC[C@H]1CN(c2nc(N)c(C(=O)N[C@H](C)CO)nc2Cl)CCN1C1CCN(C(=O)c2ccc(Cl)cc2)CC1 [compound 335]
< 0.025 µM | CC[C@H]1CN(c2nc(N)c(C(=O)NC)nc2Cl)CCN1C1CCN(C(=O)c2ccc(Cl)c(F)c2)CC1 [compound 336]
< 0.025 µM | CCC(O)CNC(=O)c1nc(Cl)c(N2CCN(C3CCN(C(=O)c4ccc(Cl)cc4)CC3)[C@@H](CC)C2)nc1N (some centres unmarked) [compound 337]
< 0.025 µM | CC[C@H]1CN(c2nc(N)c(C(=O)NC[C@@H](C)O)nc2Cl)CCN1C1CCN(C(=O)c2ccc(Cl)cc2)CC1 [compound 338]
< 0.025 µM | CC[C@H]1CN(c2nc(N)c(C(=O)NCCO)nc2Cl)CCN1C1CCN(C(=O)c2ccc(Cl)cc2N)CC1 [compound 339]
< 0.025 µM | CC[C@H]1CN(c2nc(N)c(C(=O)NC)nc2Cl)CCN1C1CCN(C(=O)c2ccc(C#N)cc2)CC1 [compound 340]
0.025 to 0.1 µM | CC[C@H]1CN(c2nc(N)c(C(=O)NC)nc2Cl)CCN1C1CCN(C(=O)c2ccc(Cl)cc2C)CC1 [compound 341]
0.025 to 0.1 µM | CC[C@H]1CN(c2nc(N)c(C(=O)NC)nc2Cl)CCN1C1CCN(C(=O)c2ccc(Br)cc2F)CC1 [compound 342]
0.025 to 0.1 µM | CC[C@H]1CN(c2nc(N)c(C(=O)NC)nc2Cl)CCN1C1CCN(C(=O)c2ccc(Cl)cc2O)CC1 [compound 343]
0.025 to 0.1 µM | CC[C@H]1CN(c2nc(N)c(C(=O)NCCO)nc2Cl)CCN1C1CCN(C(=O)c2ccc(Cl)cc2C(C)C#N)CC1 (some centres unmarked) [compound 344]
0.025 to 0.1 µM | CC[C@H]1CN(c2nc(N)c(C(=O)NCCO)nc2Cl)CCN1C1CCN(C(=O)c2cc(F)c(F)cc2N)CC1 [compound 345]
0.025 to 0.1 µM | CC[C@H]1CN(c2nc(N)c(C(=O)NCCO)nc2Cl)CCN1C1CCN(C(=O)c2ccc(C#CC(C)(C)O)cc2)CC1 [compound 346]
0.025 to 0.1 µM | CC[C@H]1CN(c2nc(N)c(C(=O)NCCO)nc2Cl)CCN1C1CCN(C(=O)c2ccc(Cl)cc2CCNS(C)(=O)=O)CC1 [compound 347]
0.025 to 0.1 µM | CC[C@H]1CN(c2nc(N)c(C(=O)NCCO)nc2Cl)CCN1C1CCN(C(=O)c2ccc(F)c(F)c2N)CC1 [compound 348]
0.025 to 0.1 µM | CC[C@H]1CN(c2nc(N)c(C(N)=O)nc2Cl)CCN1C1CCN(C(=O)c2ccc(Cl)cc2)CC1 [compound 349]
0.025 to 0.1 µM | CC[C@H]1CN(c2nc(N)c(C(=O)NC)nc2Cl)CCN1C1CCN(C(=O)c2ccc(OC(F)(F)F)cc2)CC1 [compound 350]
0.025 to 0.1 µM | CC[C@H]1CN(c2nc(N)c(C(=O)NCCO)nc2Cl)CCN1C1CCN(C(=O)c2ccc(F)c(F)c2F)CC1 [compound 351]
> 0.1 µM | CC[C@H]1CN(c2nc(N)c(C(=O)NCCO)nc2Cl)CCN1C1CCN(C(=O)c2ccc(Cl)cc2CCNC(C)=O)CC1 [compound 352]
> 0.1 µM | CC[C@H]1CN(c2nc(N)c(C(=O)NC)nc2Cl)CCN1C1CCN(C(=O)c2ccc(-n3cccn3)cc2)CC1 [compound 353]

IC50 | Structure (SMILES)
> 0.1 µM | CC[C@H]1CN(c2nc(N)c(C(=O)NC)nc2Cl)CCN1C1CCN(C(=O)c2ccc(-c3cnco3)cc2)CC1 [compound 354]
> 0.1 µM | CC[C@H]1CN(c2nc(N)c(C(=O)NCCN/C(N)=N/C#N)nc2Cl)CCN1C1CCN(C(=O)c2ccc(Cl)cc2)CC1 [compound 355]
> 0.1 µM | CC[C@H]1CN(c2nc(N)c(C(=O)NC[C@@H](O)CO)nc2Cl)CCN1C1CCN(C(=O)c2ccc(Cl)cc2)CC1 [compound 356]
> 0.1 µM | CC[C@H]1CN(c2nc(N)c(C(N)=O)nc2Cl)CCN1C1CCN(C(=O)c2ccc(Cl)cc2CC(N)=O)CC1 [compound 357]
> 0.1 µM | CC[C@H]1CN(c2nc(N)c(C(=O)NN)nc2Cl)CCN1C1CCN(C(=O)c2ccc(Cl)cc2)CC1 [compound 358]
> 0.1 µM | CC[C@H]1CN(c2nc(N)c(C(=O)NC[C@H](O)CO)nc2Cl)CCN1C1CCN(C(=O)c2ccc(Cl)cc2)CC1 [compound 359]
> 0.1 µM | CC[C@H]1CN(c2nc(N)c(C(=O)NCCO)nc2Cl)CCN1C1CCN(C(=O)c2ccc(F)c(F)c2NCc2ccccc2)CC1 [compound 360]
> 0.1 µM | CC[C@H]1CN(c2nc(N)c(C(=O)NCCO)nc2Cl)CCN1C1CCN(C(=O)c2ccc(OC(F)(F)F)cc2O)CC1 [compound 361]
> 0.1 µM | CC[C@H]1CN(c2nc(N)c(C(=O)NCCO)nc2Cl)CCN1C1CCN(C(=O)c2ccc(Cl)cc2OC)CC1 [compound 362]
> 0.1 µM | CC[C@H]1CN(c2nc(N)c(C(=O)NCCO)nc2Cl)CCN1C1CCN(C(=O)c2cc(F)c(F)cc2NC(=O)c2cc(F)c(F)cc2N)CC1 [compound 363]
> 0.1 µM | CC[C@H]1CN(c2nc(N)c(C(=O)NC)nc2Cl)CCN1C1CCN(C(=O)c2ccc(Cl)c(NS(C)(=O)=O)c2)CC1 [compound 364]
> 0.1 µM | CC[C@H]1CN(c2nc(N)c(C(=O)NC)nc2Cl)CCN1C1CCN(C(=O)c2ccc(Cl)c(N)c2)CC1 [compound 365]
> 0.1 µM | CC[C@H]1CN(c2nc(N)c(C(=O)NC)nc2Cl)CCN1C1CCN(C(=O)c2ccc(Cl)cc2NC)CC1 [compound 366]
> 0.1 µM | CC[C@H]1CN(c2nc(N)c(C(=O)NC)nc2Cl)CCN1C1CCN(C(=O)c2c(C)cc(OCc3ccccc3)cc2C)CC1 [compound 367]
> 0.1 µM | CC[C@H]1CN(c2nc(N)c(C(=O)NC)nc2Cl)CCN1C1CCN(C(=O)C2Cc3ccccc3C2)CC1 [compound 368]
> 0.1 µM | CC[C@H]1CN(c2nc(N)c(C(=O)NC)nc2Cl)CCN1C1CCN(C(=O)C2(N)CCc3ccccc3C2)CC1 (some centres unmarked) [compound 369]
< 0.025 µM | CC[C@H]1CN(c2nc(N)c(C(=O)NC)nc2Cl)CCN1C1CCN(C(=O)C2CCc3ccccc3C2)CC1 (some centres unmarked) [compound 370]
< 0.025 µM | CC[C@H]1CN(c2nc(N)c(C(=O)NC)nc2Cl)CCN1C1CCN(C(=N)c2ccc(Cl)cc2)CC1 [compound 371]
> 0.1 µM | CC[C@H]1CN(c2nc(N)c(C(=O)OC)nc2Cl)CCN1C1CCN(C(=O)c2ccc(Cl)cc2C(C)C#N)CC1 (some centres unmarked) [compound 372]
> 0.1 µM | CC[C@H]1CN(c2nc(N)c(C(=O)NNC(C)=O)nc2Cl)CCN1C1CCN(C(=O)c2ccc(Cl)cc2)CC1 [compound 373]
